Measured values reported in patent publication US5310659A, “GL-7ACA acylase” (priority 1990, dated 1994).
Read-outs that look alike come from different tables or passages of the source.

Experiments:
[1] = target: T1, GL-7ACA acylase J1 of Bacillus laterosporus J1 (SEQ ID NO: 3), purified from recombinant E. coli (Brevibacillus laterosporus, UniProt Q45289); assay: Inhibition by reaction products (competitive), Ki determination by HPLC assay; type: biochemical; conditions: substrate GL-7ACA, 37° C.
Protocol: Inhibitory activity of reaction products, namely 7-ACA and glutaric acid on the enzyme activity of GL-7ACA acylase J1 was examined. The enzyme activity was assayed in the presence of various concentrations of 7-ACA or glutaric acid. For determination of Ki of 7-ACA, reaction mixture (200 μl) containing 20 μmole of glycine buffer (pH 9), 0.39-2.0 μmole of GL-7ACA, 0.3-0.48 μmole of 7-ACA and 11 μg of enzyme was used and the reaction was performed at 37° C. for 6 min. For determination of Ki of glutaric acid, reaction mixture (200 μl) containing (a) 20 μmole of glycine buffer (pH 9), 0.26-3.0 μmol of GL-7ACA, 2-10 μmol of glutaric acid and 11 μg of the enzyme (b) 20 μmol of Tris-HCl buffer (pH 8), 0.05-1.0 μmol of GL-7ACA, […] of glutaric acid and 5 μg of the enzyme was used. The reaction was performed at 37° C. for 3 min. […] Ki values were calculated from the apparent Michaelis constants (Kmapp), Km and Vmax. Ki values of 7-ACA was 2.0 mM.

[2] = system: CC(=O)OCC1=C(C(=O)O)N2C(=O)C(NC(=O)CCCC(=O)O)[C@H]2SC1; assay: Michaelis-Menten kinetics of GL-7ACA hydrolysis, HPLC assay, Lineweaver-Burk plot; type: biochemical, Bacillus laterosporus J1; conditions: 37° C., 2 min
Protocol: Transformant colonies were picked up and grown overnight at 30° C. in 1 ml of 2% Bouillon (Eiken Chemical Co., Ltd., Japan) supplemented with 1 mM […] (IPTG; Sigma Chemical Co., Ltd., U.S.A.). Cells were harvested by centrifugation and resulting cell pellets were used for assay. Reaction mixture (200 μl ) containing 100 mM phosphate buffer (pH 8), 2 mg of GL-7ACA and cell pellets were thoroughly mixed and incubated for 10 min at 37° C. The reaction was terminated by the addition of 200 μl of 4% acetic acid. Samples were applied to a Inertsil ODS-2 column (4.6 mm × 150 mm) (Gasukuro Kogyo Co., Ltd., Japan) and elution was performed with 0.567 g/l of Na2 HPO4, 0.36 g/l of KH2 PO4 and 2-4% methanol. 7ACA was detected with absorption at 254 nm.
The activity of the GL-7ACA acylase J1 was determined by HPLC assay. […] Specific enzyme activity was expressed as unit per mg of protein. Protein concentrations were determined by Bio-Rad protein assay kit (Bio-Rad Co., Ltd., U.S.A.) with bovine serum albumin as a standard. Maximum specific enzyme activity (Vmax) and Michaelis constant (Km) were calculated from slope and intersection which were obtained by Lineweaver-Burk plot (Cf. M. Dixon and E. C. Webb, Enzymes, Longmans, London, 1958). […]

[3] = target: T1, GL-7ACA acylase J1 of Bacillus laterosporus J1 (SEQ ID NO: 3), purified from recombinant E. coli; assay: biochemical; conditions: for Relative activity (%): enzyme treated 37° C. 3 hours in 0.1 M Tris-HCl (pH 8), residual activity vs blank-treated enzyme, substrate GL-7ACA
Protocol: Effect of p-chloromercuribenzoate (pCMB, Sigma Chemical Co., Ltd.), phenylmethylsulfonyl fluoride (PMSF, Sigma) and ethylenediaminetetraacetic acid (EDTA, Nacalai Tesque Inc., Japan) on the activity of GL-7ACA acylase J1 was examined as follows. Eleven μg of GL-7ACA acylase J1 was treated at 37° C. for 3 hours with 1.0 or 5.0 mM pCMB, 1.0 or 5.0 mM PMSF, or 1.0 or 5.0 mM EDTA in 200 μl of 0.1 M Tris-HCl buffer (pH 8). Residual activity of the treated enzyme was assayed by adding 22 μl of GL-7ACA (20 mg/ml) as a substrate to the mixture. The reaction was performed at 37° C for 10 min. Residual activity was expressed as a percentage compared to the activity of the enzyme treated with blank solution.

[4] = pH 8, read-out: Relative activity (%)

T1 sequence (Q45289 entry or part of it): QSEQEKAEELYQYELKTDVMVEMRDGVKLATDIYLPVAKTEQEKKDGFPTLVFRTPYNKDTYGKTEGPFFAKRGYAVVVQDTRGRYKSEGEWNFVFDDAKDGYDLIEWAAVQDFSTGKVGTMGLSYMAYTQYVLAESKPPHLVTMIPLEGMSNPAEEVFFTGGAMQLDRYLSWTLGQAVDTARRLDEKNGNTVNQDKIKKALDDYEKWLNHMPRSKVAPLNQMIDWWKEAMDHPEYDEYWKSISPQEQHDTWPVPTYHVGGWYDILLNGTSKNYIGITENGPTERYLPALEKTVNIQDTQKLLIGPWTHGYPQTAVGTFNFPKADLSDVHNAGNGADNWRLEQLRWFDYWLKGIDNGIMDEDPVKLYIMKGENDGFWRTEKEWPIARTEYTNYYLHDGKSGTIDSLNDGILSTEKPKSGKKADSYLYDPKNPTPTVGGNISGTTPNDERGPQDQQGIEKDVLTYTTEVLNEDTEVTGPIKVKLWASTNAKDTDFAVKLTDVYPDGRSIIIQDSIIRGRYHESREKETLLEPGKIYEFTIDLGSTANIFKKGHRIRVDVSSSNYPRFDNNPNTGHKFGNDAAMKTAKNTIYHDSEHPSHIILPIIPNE

In the case of `CC(=O)OCC1=C(C(=O)O)N2C(=O)C(N)C2SC1` (centres unmarked) [7-ACA, 7-aminocephalosporanic acid], the Ki ([1]; glycine buffer (pH 9), 6 min, read-out: Ki of 7-ACA) is reported as 2000 µM.

For “GL-7ACA acylase J1 of Bacillus laterosporus J1 (SEQ ID NO: 3), purified from recombinant E. coli (Brevibacillus laterosporus)”, the Km ([2]; other: 100 mM Tris-HCl buffer (pH 8), 0.16-5 mM GL-7ACA, pH 8.0) was 140 µM and the Km ([2]; other: 100 mM glycine buffer (pH 9), 1.4-20 mM GL-7ACA, pH 9.0) was 3200 µM.

`O=C(O)CN(CCN(CC(=O)O)CC(=O)O)CC(=O)O` [EDTA, ethylenediaminetetraacetic acid] showed an activity at 1000 µM [3, 4] of 100% and an activity at 5000 µM [3, 4] of 102%.

For `O=C(O)c1cc[c]([Hg][Cl])cc1` [pCMB, p-chloromercuribenzoate], the “Relative activity (%)” value ([3]; inhibitor 1 mM) was 106% and the “Relative activity (%)” value ([3]; inhibitor 5 mM) was 104%.

In the case of `O=S(=O)(F)Cc1ccccc1` [PMSF, phenylmethylsulfonyl fluoride], the “Relative activity (%)” value ([3]; inhibitor 1 mM) is reported as 90% and the “Relative activity (%)” value ([3]; inhibitor 5 mM) is reported as 78%.

`O=C(O)CCCC(=O)O` [glutaric acid] gave a Ki ([1]; 0.1M Tris-HCl buffer (pH 8), 3 min, read-out: Ki of glutaric acid) of 990 µM and a Ki ([1]; 0.1M glycine buffer (pH 9), 3 min, read-out: Ki of glutaric acid) of 53000 µM.
